Measured values reported in PMC12528448, “Resistance to CDK7 inhibitors directed by acquired mutation of a conserved residue in cancer cells” (The EMBO Journal, 2025).
Values joined by “and” are separate entries in the source; they are usually repeats but may differ in a detail not shown here. Equal entries are not always repeated.

Assays:
CDK7-D97N = molecular target: T1, CDK7-D97N (Homo sapiens, UniProt P50613, D97N); experiment: NanoBRET Target Engagement assay, K-10 tracer displacement in HEK293 cells; format: binding; settings: CDK7 D97N, replicates N1-N3
T1 construct: expressed in transfected cells; host or cells: HEK293
T1 sequence (P50613 whole entry D97N): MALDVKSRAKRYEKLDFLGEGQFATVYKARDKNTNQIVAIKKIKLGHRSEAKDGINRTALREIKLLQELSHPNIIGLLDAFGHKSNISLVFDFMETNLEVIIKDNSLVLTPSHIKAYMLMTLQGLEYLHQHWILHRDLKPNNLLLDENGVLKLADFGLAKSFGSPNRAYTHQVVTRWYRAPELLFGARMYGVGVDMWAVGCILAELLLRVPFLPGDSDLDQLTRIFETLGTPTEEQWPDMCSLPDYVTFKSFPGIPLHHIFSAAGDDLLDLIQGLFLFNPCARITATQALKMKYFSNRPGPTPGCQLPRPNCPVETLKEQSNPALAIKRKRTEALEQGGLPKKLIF
Protocol: (§1) Energy transfer between the NanoLuc fusion protein and a cell-permeable fluorescent energy transfer probe facilitates quantitative determination of target engagement in live cells (Wells et al, [2020]). Assays were conducted according to this previous report, using the optimal CDK7 probe, K-10, at a concentration of 0.5 µM.
(§2) CDK4, CDK6 and CDK7 and the respective mutant sequences, obtained as synthesised DNA fragments from IDT (Leuven), were cloned by HiFi DNA assembly (New England Biolabs) into the pNLF1-N NanoLuc protein fusion vector (Promega). HEK293 cells, transiently transfected with NanoLuc-CDK fusion constructs, were used for activity determination, utilising the NanoBRET Target Engagement Intracellular Kinase Assay. A CCND1 expression construct was co-transfected with the NanoLuc-CDK4 and NanoLuc-CDK6 fusion constructs. The recommended cell-permeable energy transfer probe, K-10, was used to assess target engagement, as detailed in the manufacturer’s methods (Promega). […] The BRET ratio (mBU) was calculated as acceptor emission (590–610 nm)/donor emission (410–490 nm) × 1000. The mBU values were plotted against the energy probe concentrations to determine maximal binding (Bmax) and Kd values. BRET signal competition by CDK inhibitors was used to determine compound binding to WT and mutant CDKs. […] Inhibitor binding was determined using a fourfold dilution series. mBU values were plotted against test compound concentrations in the presence of K10 tracer. EC50 values were determined using nonlinear regression curve-fitting. Test compound occupancy (%) was calculated using the equation [1 − (x − z)/(y − z)] × 100, where x = mBU in the presence of the test compound and K-10 tracer, y = mBU with K-10 tracer and vehicle control, and z = mBU in the absence of the K-10 tracer or test compound (Wells et al, [2020]).

CDK7-WT = molecular target: T2, CDK7-WT (Homo sapiens, UniProt P50613); experiment: as above; format: binding; settings: CDK7 WT, replicates N1-N3
T2 construct: expressed in transfected cells; host or cells: HEK293
T2 sequence (P50613 whole entry): as the sequence (P50613 whole entry D97N) above, with N97D counted along it
Protocol: as §1, §2

22Rv1 cells = experiment: Growth assay (SRB), 22Rv1; format: cell-based, human; settings: 22Rv1, 4 days, biological reps
Protocol: (§3) To determine the IC50 of drug treatments on growth, cells were seeded in 96-well culture plates. Two days after seeding, the cells were treated with increasing concentrations of drugs and incubated for 4 days. Cell number was determined using the SRB assay (Skehan et al, [1990]), and IC50 values were calculated using non-linear regression curve fitting in GraphPad Prism v10. For all other growth experiments, cells were seeded into 96-well plates, and appropriate drugs were added 2 days after seeding. Cells were then incubated in an IncuCyte Zoom live-cell imager, with cell confluency measured every 6 h. Cell doubling times were determined by non-linear curve fitting (exponential growth equation) in GraphPad Prism v10.

22Rv1-SamR cells = experiment: Growth assay (SRB), Samuraciclib-resistant 22Rv1; format: cell-based, human; settings: for % Growth: 22Rv1 SamR, 4 days, biological reps
Protocol: as §3

MCF7-CDK7-D97N cells = experiment: Growth assay (SRB), MCF7 CDK7-D97N knock-in; format: cell-based, human; settings: 4 days; for % Growth: MCF7 CDK7 D99N, biological reps
Protocol: as §3
Alt-R^TM S.p. Cas9 nuclease V3, Alt-R CRISPR-Cas9 crRNA, TracrRNA and the donor templates were obtained from Integrated DNA Technologies. […] Cells were treated with 0.7 µM of Alt-R HDR Enhancer V2 to improve HRD efficiency. Sequences of the CRISPRs in the crRNA and the donor templates are shown in the Reagents and tools table. Donor templates were designed to include non-coding substitutions to aid genome DNA PCR for identifying knock-in events and to facilitate cloning; these substitutions are noted in the Reagents and tools table.

CN(C)C/C=C/C(=O)Nc1ccc(C(=O)Nc2cccc(Nc3ncc(Cl)c(-c4c[nH]c5ccccc45)n3)c2)cc1 [THZ1]
% Occupacy (CDK7-D97N; Log10 Conc. (nM) 0.09): 9.16% and 2.67% and 0.07% | % Occupacy (CDK7-D97N; Log10 Conc. (nM) 0.69): 13.92% and 3.61% and 4.36% | % Occupacy (CDK7-D97N; Log10 Conc. (nM) 1.29): 29.03% and 9.81% and 4.02% | % Occupacy (CDK7-D97N; Log10 Conc. (nM) 1.89): 74.11% and 30.96% and 26.31% | % Occupacy (CDK7-D97N; Log10 Conc. (nM) 2.49): 95.10% and 79.08% and 80.38% | % Occupacy (CDK7-D97N; Log10 Conc. (nM) 3.10): 97.98% and 96.38% and 96.98% | % Occupacy (CDK7-D97N; Log10 Conc. (nM) 3.70): 98.68% and 99.58% and 99.12% | % Occupacy (CDK7-D97N; Log10 Conc. (nM) 4.30): 99.99% and 100.77% and 101.05% | % Occupacy (CDK7-D97N; Log10 Conc. (nM) -0.52): 6.83% and 2.53% and 1.19% | % Occupacy (CDK7-D97N; Log10 Conc. (nM) -1.12): 11.58% and 4.35% and 1.55% | % Occupacy (CDK7-D97N; Log10 Conc. (nM) -1.72): 7.10% and 3.74% and 2.78% | % Occupacy (CDK7-WT; Log10 Conc. (nM) 0.09): 16.74% and 4.33% and 5.86% | % Occupacy (CDK7-WT; Log10 Conc. (nM) 0.69): 17.70% and 6.32% and 7.28% | % Occupacy (CDK7-WT; Log10 Conc. (nM) 1.29): 29.22% and 3.65% and 10.56% | % Occupacy (CDK7-WT; Log10 Conc. (nM) 1.89): 53.51% and 14.09% and 19.55% | % Occupacy (CDK7-WT; Log10 Conc. (nM) 2.49): 85.19% and 65.85% and 67.10% | % Occupacy (CDK7-WT; Log10 Conc. (nM) 3.10): 97.70% and 100.48% and 92.33% | % Occupacy (CDK7-WT; Log10 Conc. (nM) 3.70): 102.14% and 100.08% and 100.97% | % Occupacy (CDK7-WT; Log10 Conc. (nM) 4.30): 101.17% and 106.00% and 102.12% | % Occupacy (CDK7-WT; Log10 Conc. (nM) -0.52): 21.00% and 8.28% and 9.27% | % Occupacy (CDK7-WT; Log10 Conc. (nM) -1.12): 15.97% and 8.08% and 8.28% | % Occupacy (CDK7-WT; Log10 Conc. (nM) -1.72): 12.78% and 7.38% and 8.51% | % Growth (22Rv1 cells; Log10 Conc. (nM) 0.09): 93.20% and 88.05% | % Growth (22Rv1 cells; Log10 Conc. (nM) 0.69): 85.45% and 77.80% | % Growth (22Rv1 cells; Log10 Conc. (nM) 1.29): 56.44% and 44.90% | % Growth (22Rv1 cells; Log10 Conc. (nM) 1.89): 5.80% and -0.07% | % Growth (22Rv1 cells; Log10 Conc. (nM) 2.49): -4.12% and -6.31% | % Growth (22Rv1 cells; Log10 Conc. (nM) 3.10): -6.49% and -7.67% | % Growth (22Rv1 cells; Log10 Conc. (nM) 3.70): -6.63% and -7.61% | % Growth (22Rv1 cells; Log10 Conc. (nM) -0.52): 98.36% and 93.94% | % Growth (22Rv1 cells; Log10 Conc. (nM) -1.12): 96.18% and 94.83% | Sensitivity in growth assays (22Rv1-SamR cells; 22Rv1-SamR): remained sensitive | % Growth (22Rv1-SamR cells; Log10 Conc. (nM) 0.09): 83.75% and 87.25% | % Growth (22Rv1-SamR cells; Log10 Conc. (nM) 0.69): 68.41% and 67.61% | % Growth (22Rv1-SamR cells; Log10 Conc. (nM) 1.29): 30.25% and 41.41% | % Growth (22Rv1-SamR cells; Log10 Conc. (nM) 1.89): -7.69% and -2.73% | % Growth (22Rv1-SamR cells; Log10 Conc. (nM) 2.49): -11.43% and -7.53% | % Growth (22Rv1-SamR cells; Log10 Conc. (nM) 3.10): -11.82% and -8.43% | % Growth (22Rv1-SamR cells; Log10 Conc. (nM) 3.70): -15.22% and -10.53% | % Growth (22Rv1-SamR cells; Log10 Conc. (nM) -0.52): 93.15% and 99.90% | % Growth (22Rv1-SamR cells; Log10 Conc. (nM) -1.12): 93.43% and 95.60% | IC50 (MCF7-CDK7-D97N cells; MCF7-CDK7-D97N, SRB): 68.7 nM | % Growth (MCF7-CDK7-D97N cells; Log10 Conc. (nM) 0.09): 97.12% and 98.47% and 91.37% | % Growth (MCF7-CDK7-D97N cells; Log10 Conc. (nM) 0.69): 86.82% and 92.10% and 89.13% | % Growth (MCF7-CDK7-D97N cells; Log10 Conc. (nM) 1.29): 76.30% and 76.07% and 72.54% | % Growth (MCF7-CDK7-D97N cells; Log10 Conc. (nM) 1.89): 35.33% and 47.81% and 46.77% | % Growth (MCF7-CDK7-D97N cells; Log10 Conc. (nM) 2.49): -1.00% and 8.40% and 7.81% | % Growth (MCF7-CDK7-D97N cells; Log10 Conc. (nM) -0.52): 99.89% and 102.56% and 100.45% | % Growth (MCF7-CDK7-D97N cells; Log10 Conc. (nM) -1.12): 96.07% and 101.58% and 94.36%
